Data published in patent US20020051808A1, “Drug delivery system involving interaction between protein or polypeptide and hydrophobic biodegradable polymer” (priority 1995, published 2002).

Legend:
Assay type in all cases: physicochemical
[1] = Molecular interaction of salmon calcitonin with poly(glycolic-Co-lactic acid); conditions: for CALCITONIN CONC.: supernatant
Method: (§1) Approximately five mg of calcitonin were quantitatively weighed and placed in each of a series of 5 ml volumetric flasks. Hexafluoroacetone sesquihydrate (HFA) was added dropwise until the calcitonin dissolved completely. A 5% PGA in HFA solution was quantitatively added dropwise to each flask to provide a mass of PGA covering the range of 0 to 26.3 mg. The flasks were agitated for 5 minutes to mix the solution. Each flask was then filled to the 5 ml mark with phosphate buffer (pH 7.3). The addition of buffer precipitated the PGA plus any calcitonin that had bound with the polymer. The resulting mixture was centrifuged and the supernatant was analyzed spectrophotometrically for salmon calcitonin content. 26 mg of PGA (40,000 Mw) removed approximately 4.1 mg (83%) of salmon calcitonin.
The procedure of preparing the poly(glycolic-Co-lactic acid) (PGL) having a molecular weight of 50,000 microspheres was similar to that used for PGA, except the hexafluoro-2-propanol was substituted for HFA. Above 8 mg of PGL over 80% of salmon calcitonin was removed.

[2] = Molecular interaction of salmon calcitonin with polyglycolic acid (co-precipitation, supernatant assay); conditions: for CALCITONIN CONC.: supernatant
Method: The present example was intended to quantify chemical and/or physical association between salmon calcitonin and polyglycolic acid (PGA) having a molecular weight of 40,000 Daltons.
as §1

[3] = Molecular interaction of salmon calcitonin with polylactic acid; conditions: for CALCITONIN CONC.: supernatant
Method: as §1
The procedure for preparing the polylactic acid (PLA), dl-type having a molecular weight of 50,000, was similar to that used for PGA, except that methylene chloride was substituted for HFA and the calcitonin was suspended rather than dissolved in the methylene chloride. In addition, since methylene chloride and buffer are not miscible, salmon calcitonin was extracted from methylene chloride in buffer. The aqueous phase was separated, centrifuged and the supernatant was analyzed spectrophotometrically for salmon calcitonin.

[4] = In vitro release of salmon calcitonin from microspheres; conditions: in the phosphate buffer, pH 7.4, 37° C.
Method: Twenty mg of PGA-salmon calcitonin microspheres were loaded into a test tube. Ten ml of a 0.1M phosphate buffer, pH 7.4, containing EDTA were added and the tubes transferred to a 37° C. water bath. Nineteen μg salmon calcitonin/mg microspheres were released initially as a burst. This initial release was followed by a fast release of 50% of the total drug in less than two hours. At this point, a slow release followed and 22 μg salmon calcitonin/mg microspheres (22% of total drug) was released in the following 29 hours.

% CALCITONIN REMOVED ([1]; PGL mass 0.00 mg): 11.1%
CALCITONIN REMOVED ([1]; PGL mass 0.00 mg): 0.591 mg
% CALCITONIN REMOVED ([1]; PGL mass 2.64 mg): 19.9%
CALCITONIN REMOVED ([1]; PGL mass 2.64 mg): 0.995 mg
% CALCITONIN REMOVED ([1]; PGL mass 4.13 mg): 43.9%
CALCITONIN REMOVED ([1]; PGL mass 4.13 mg): 2.15 mg
% CALCITONIN REMOVED ([1]; PGL mass 5.52 mg): 51.8%
CALCITONIN REMOVED ([1]; PGL mass 5.52 mg): 2.69 mg
% CALCITONIN REMOVED ([1]; PGL mass 6.51 mg): 59.8%
CALCITONIN REMOVED ([1]; PGL mass 6.51 mg): 2.87 mg
% CALCITONIN REMOVED ([1]; PGL mass 8.45 mg): 80.8%
CALCITONIN REMOVED ([1]; PGL mass 8.45 mg): 3.64 mg
% CALCITONIN REMOVED ([1]; PGL mass 11.53 mg): 87.5%
CALCITONIN REMOVED ([1]; PGL mass 11.53 mg): 4.37 mg
% CALCITONIN REMOVED ([1]; PGL mass 13.57 mg): 92.5%
CALCITONIN REMOVED ([1]; PGL mass 13.57 mg): 4.44 mg
% CALCITONIN REMOVED ([1]; PGL mass 20.97 mg): 91.6%
CALCITONIN REMOVED ([1]; PGL mass 20.97 mg): 4.95 mg
salmon calcitonin removed (percent) ([1]; above 8 mg of PGL): over 80%
CALCITONIN CONC. ([1]; PGL mass 0.00 mg): 0.941 mg/mL
CALCITONIN CONC. ([1]; PGL mass 2.64 mg): 0.801 mg/mL
CALCITONIN CONC. ([1]; PGL mass 4.13 mg): 0.550 mg/mL
CALCITONIN CONC. ([1]; PGL mass 5.52 mg): 0.501 mg/mL
CALCITONIN CONC. ([1]; PGL mass 6.51 mg): 0.386 mg/mL
CALCITONIN CONC. ([1]; PGL mass 8.45 mg): 0.172 mg/mL
CALCITONIN CONC. ([1]; PGL mass 11.53 mg): 0.125 mg/mL
CALCITONIN CONC. ([1]; PGL mass 13.57 mg): 0.0725 mg/mL
CALCITONIN CONC. ([1]; PGL mass 20.97 mg): 0.0908 mg/mL
salmon calcitonin removed ([2]; 26 mg of PGA (40,000 Mw)): approximately 4.1 mg
salmon calcitonin removed (percent) ([2]; 26 mg of PGA (40,000 Mw)): ~83%
% CALCITONIN REMOVED ([2]; PGA mass 0.00 mg): 1.90%
CALCITONIN REMOVED ([2]; PGA mass 0.00 mg): 0.099 mg
% CALCITONIN REMOVED ([2]; PGA mass 5.73 mg): 2.71%
CALCITONIN REMOVED ([2]; PGA mass 5.73 mg): 0.125 mg
% CALCITONIN REMOVED ([2]; PGA mass 7.81 mg): 22.3%
CALCITONIN REMOVED ([2]; PGA mass 7.81 mg): 1.07 mg
% CALCITONIN REMOVED ([2]; PGA mass 7.89 mg): 6.80%
CALCITONIN REMOVED ([2]; PGA mass 7.89 mg): 0.340 mg
% CALCITONIN REMOVED ([2]; PGA mass 10.4 mg): 54.0%
CALCITONIN REMOVED ([2]; PGA mass 10.4 mg): 2.54 mg
% CALCITONIN REMOVED ([2]; PGA mass 11.8 mg): 38.0%
CALCITONIN REMOVED ([2]; PGA mass 11.8 mg): 1.71 mg
% CALCITONIN REMOVED ([2]; PGA mass 13.2 mg): 32.7%
CALCITONIN REMOVED ([2]; PGA mass 13.2 mg): 1.64 mg
% CALCITONIN REMOVED ([2]; PGA mass 14.0 mg): 41.2%
CALCITONIN REMOVED ([2]; PGA mass 14.0 mg): 2.02 mg
% CALCITONIN REMOVED ([2]; PGA mass 15.8 mg): 53.7%
CALCITONIN REMOVED ([2]; PGA mass 15.8 mg): 2.69 mg
% CALCITONIN REMOVED ([2]; PGA mass 18.4 mg): 77.4%
CALCITONIN REMOVED ([2]; PGA mass 18.4 mg): 3.87 mg
% CALCITONIN REMOVED ([2]; PGA mass 21.0 mg): 82.1%
CALCITONIN REMOVED ([2]; PGA mass 21.0 mg): 4.10 mg
% CALCITONIN REMOVED ([2]; PGA mass 22.3 mg): 58.6%
CALCITONIN REMOVED ([2]; PGA mass 22.3 mg): 2.95 mg
% CALCITONIN REMOVED ([2]; PGA mass 23.7 mg): 72.4%
CALCITONIN REMOVED ([2]; PGA mass 23.7 mg): 3.62 mg
% CALCITONIN REMOVED ([2]; PGA mass 26.3 mg): 82.6%
CALCITONIN REMOVED ([2]; PGA mass 26.3 mg): 4.13 mg
CALCITONIN CONC. ([2]; PGA mass 0.00 mg): 1.020 mg/mL
CALCITONIN CONC. ([2]; PGA mass 5.73 mg): 0.895 mg/mL
CALCITONIN CONC. ([2]; PGA mass 7.81 mg): 0.746 mg/mL
CALCITONIN CONC. ([2]; PGA mass 7.89 mg): 0.932 mg/mL
CALCITONIN CONC. ([2]; PGA mass 10.4 mg): 0.432 mg/mL
CALCITONIN CONC. ([2]; PGA mass 11.8 mg): 0.558 mg/mL
CALCITONIN CONC. ([2]; PGA mass 13.2 mg): 0.673 mg/mL
CALCITONIN CONC. ([2]; PGA mass 14.0 mg): 0.576 mg/mL
CALCITONIN CONC. ([2]; PGA mass 15.8 mg): 0.461 mg/mL
CALCITONIN CONC. ([2]; PGA mass 18.4 mg): 0.226 mg/mL
CALCITONIN CONC. ([2]; PGA mass 21.0 mg): 0.175 mg/mL
CALCITONIN CONC. ([2]; PGA mass 22.3 mg): 0.422 mg/mL
CALCITONIN CONC. ([2]; PGA mass 23.7 mg): 0.276 mg/mL
CALCITONIN CONC. ([2]; PGA mass 26.3 mg): 0.174 mg/mL
% CALCITONIN REMOVED ([3]; PLA mass 0.00 mg): 1.03%
CALCITONIN REMOVED ([3]; PLA mass 0.00 mg): 0.055 mg
% CALCITONIN REMOVED ([3]; PLA mass 2.68 mg): 40.8%
CALCITONIN REMOVED ([3]; PLA mass 2.68 mg): 2.04 mg
% CALCITONIN REMOVED ([3]; PLA mass 4.81 mg): 47.2%
CALCITONIN REMOVED ([3]; PLA mass 4.81 mg): 2.36 mg
% CALCITONIN REMOVED ([3]; PLA mass 10.28 mg): 55.4%
CALCITONIN REMOVED ([3]; PLA mass 10.28 mg): 2.77 mg
% CALCITONIN REMOVED ([3]; PLA mass 14.95 mg): 72.4%
CALCITONIN REMOVED ([3]; PLA mass 14.95 mg): 3.62 mg
% CALCITONIN REMOVED ([3]; PLA mass 20.40 mg): 60.3%
CALCITONIN REMOVED ([3]; PLA mass 20.40 mg): 3.02 mg
CALCITONIN CONC. ([3]; PLA mass 0.00 mg): 1.05 mg/mL
CALCITONIN CONC. ([3]; PLA mass 2.68 mg): 0.592 mg/mL
CALCITONIN CONC. ([3]; PLA mass 4.81 mg): 0.488 mg/mL
CALCITONIN CONC. ([3]; PLA mass 10.28 mg): 0.386 mg/mL
CALCITONIN CONC. ([3]; PLA mass 14.95 mg): 0.276 mg/mL
CALCITONIN CONC. ([3]; PLA mass 20.40 mg): 0.417 mg/mL
time salmon calcitonin remains stable [4]: about 35 hours
Substance: salmon calcitonin
